Entries after “also recorded” stand apart in the source; their conditions may differ. Non-standard residues stand in square brackets, D forms with d. Residues, ends and D or L forms follow the SMILES beside them. pGlu = O=C1CC[C@@H](C(=O)O)N1
Experiments:
[1] = system: GnRH-superfamily receptors; assay: Activation of GnRH-superfamily receptors in vitro; format: cell-based, Platynereis dumerilii
Excerpt: (§1) We next took advantage of a cell culture-based calcium mobilization assay ([59]) for assessing the ligand–receptor interactions of these receptors. […] Given that a receptor for GnRHL3 was still missing, we tested ligand–receptor interactions of all identified Platynereis GnRH-like receptors. […] As we presently cannot exclude the existence of an additional GnRH-like receptor in Platynereis that might be activated by GnRHL3 at lower concentrations, we here use the more generic name (GnRHL3) for this ligand.
(§2) CrzRb was identified and initially deorphanized in ref. [54]. GnRHR1/AKHR1 and GnRHR2/AKHR2, as well as the second isoform of CrzR (CrzRa) were identified using an in silico approach and confirmed by cloning and sequencing. To facilitate deorphanization, cDNA of these receptors was amplified from laboratory Platynereis strains and cloned into the pcDNA3.1 (+) vector. […] Receptor activation was measured by monitoring calcium responses for 30 s on a Mithras LB 940 luminometer (Berthold Technologies). Percentage activation values of receptors were plotted for each receptor, and half maximal effective concentrations (EC50 value) were calculated using a computerized nonlinear regression analysis with a sigmoidal dose–response equation (GraphPad PRISM software). […]

GnRHR1/AKHR1 = target: T1, GnRHR1/AKHR1 (Platynereis dumerilii, UniProt A0A6B9MSD4); assay: Calcium mobilization (deorphanization) assay, GnRHR1/AKHR1; format: cell-based
T1 sequence (A0A6B9MSD4 1-359): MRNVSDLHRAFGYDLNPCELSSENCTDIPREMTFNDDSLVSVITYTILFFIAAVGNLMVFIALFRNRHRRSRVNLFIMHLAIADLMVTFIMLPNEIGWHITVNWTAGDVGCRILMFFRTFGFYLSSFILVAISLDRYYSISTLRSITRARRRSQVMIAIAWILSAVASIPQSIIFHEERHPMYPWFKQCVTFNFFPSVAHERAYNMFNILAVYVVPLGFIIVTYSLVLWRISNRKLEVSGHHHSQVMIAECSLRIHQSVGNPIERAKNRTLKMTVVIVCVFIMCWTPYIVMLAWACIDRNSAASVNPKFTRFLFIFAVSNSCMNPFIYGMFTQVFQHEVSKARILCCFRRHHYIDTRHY
Excerpt: as §1, §2

GnRHR2/AKHR2 = target: T2, GnRHR2/AKHR2 (Platynereis dumerilii, UniProt A0A6B9MRA0); assay: Calcium mobilization (deorphanization) assay, GnRHR2/AKHR2; format: cell-based
T2 sequence (A0A6B9MRA0 1-355): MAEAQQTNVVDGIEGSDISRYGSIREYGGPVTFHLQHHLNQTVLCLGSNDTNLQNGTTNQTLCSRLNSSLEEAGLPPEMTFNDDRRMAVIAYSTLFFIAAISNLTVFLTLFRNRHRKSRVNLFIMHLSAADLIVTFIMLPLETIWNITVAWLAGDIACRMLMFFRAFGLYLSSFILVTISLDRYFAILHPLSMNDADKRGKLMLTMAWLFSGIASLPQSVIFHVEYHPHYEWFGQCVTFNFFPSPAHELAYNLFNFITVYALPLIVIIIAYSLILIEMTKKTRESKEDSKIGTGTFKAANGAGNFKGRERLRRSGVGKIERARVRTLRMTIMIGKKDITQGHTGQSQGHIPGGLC
Excerpt: as §1, §2

CrzRb = target: T3, CrzRb (Platynereis dumerilii, UniProt A0A291FE86); assay: Calcium mobilization (deorphanization) assay, CrzRb; format: cell-based
T3 sequence (A0A291FE86 1-422): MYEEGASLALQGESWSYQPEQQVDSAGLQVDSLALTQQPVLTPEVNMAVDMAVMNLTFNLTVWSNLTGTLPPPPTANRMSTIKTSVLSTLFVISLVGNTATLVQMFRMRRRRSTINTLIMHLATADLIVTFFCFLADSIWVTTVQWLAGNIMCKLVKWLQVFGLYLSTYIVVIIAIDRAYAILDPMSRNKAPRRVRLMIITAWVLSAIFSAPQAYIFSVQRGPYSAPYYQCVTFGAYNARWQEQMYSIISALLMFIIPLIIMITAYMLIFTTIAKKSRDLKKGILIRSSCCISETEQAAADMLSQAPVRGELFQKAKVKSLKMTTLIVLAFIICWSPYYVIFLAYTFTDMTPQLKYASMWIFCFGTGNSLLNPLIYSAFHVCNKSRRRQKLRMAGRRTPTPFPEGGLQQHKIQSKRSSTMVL
Excerpt: as §1, §2

CrzR = assay: Ligand-receptor interaction, Corazonin receptor (isoform not given); format: cell-based, Platynereis dumerilii
Excerpt: as §1, §2

CrzRa = target: T4, CrzRa (Platynereis dumerilii, UniProt A0A6B9MK47); assay: Calcium mobilization (deorphanization) assay, CrzRa; format: cell-based
T4 sequence (A0A6B9MK47 1-288): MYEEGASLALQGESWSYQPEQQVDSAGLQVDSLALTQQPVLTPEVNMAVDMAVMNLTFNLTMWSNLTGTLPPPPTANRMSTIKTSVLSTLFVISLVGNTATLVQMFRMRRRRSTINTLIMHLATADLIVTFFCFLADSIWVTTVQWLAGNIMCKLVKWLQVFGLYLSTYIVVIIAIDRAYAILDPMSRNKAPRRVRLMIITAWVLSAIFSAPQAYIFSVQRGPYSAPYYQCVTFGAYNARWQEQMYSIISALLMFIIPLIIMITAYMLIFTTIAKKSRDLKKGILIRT
Excerpt: as §1, §2

honeybee larvae = conditions: fed with swainsonine; ref SI 20; cited from earlier work
Excerpt: Cons e que nce s of lys os oma l α-ma n n o si d as e im p a i r me n t s i n o t h e r s pe ci es One of the molecular consequences of knocking out the Platynereis crz1/gnrhl1 gene that we reveal in this study is the strong reduction of lysosomal α-mannosidase. In huma ...

glucose production = conditions: vertebrate glucagon; glycogenolysis and gluconeogenesis; ref [38], [66], [77]–[79]; cited from earlier work
Excerpt: The focus on the metabolic consequences of CRZ/GnRHL provides an interesting perspective for the cross-comparison of corazonin signaling with other signaling systems. The proposed role of worm CRZ1 in promoting the expression of α-glucosidases and pepck is reminiscent of the action of the GnRH-like AKH peptide in flies but also the role of vertebrate glucagon, an independent factor that has been discussed as a functional analog of insect AKH signaling ([38], [66], [77]–[79]). […] Thus, CRZ1/GnRHL1 see ...

female mice = female mice injected with leptin; ref [50]–[52]; cited from earlier work
Excerpt: In turn, strong interconnections between the GnRH system and metabolism can also be found in several vertebrates. […] In mammals, GnRH release is also regulated by the orexigenic neuropeptide Y (NPY) and kisspeptin, which relays both sex steroid and leptin signaling to GnRH neurons ([49]). In line with this, a high-fat diet increases hypothalamic gnrh expression in prepubescent gilts ([50]), where this treatm ...

[2] = CHO cells stably expressing apo-aequorin and human Gα16, transient transfection, calcium response 30 s, luminometer, nonlinear regression, at least 4 replicates in at least 2 independent experiments
[3] = CHO cells, all receptors tested with all ligands
[4] = CHO cells, all receptor-ligand combinations tested, GnRHL3 at higher concentration (sub-micromolar to micromolar range)

With CC(C)C[C@H](NC(=O)[C@H](CO)NC(=O)[C@H](CCC(N)=O)NC(=O)[C@@H](NC(=O)[C@H](CC(C)C)NC(=O)[C@@H]1CCC(=O)N1)[C@@H](C)O)C(=O)NCC(=O)N[C@@H](Cc1c[nH]c2ccccc12)C(=O)NCC(=O)N[C@@H](CO)C(=O)N[C@@H](C)C(=O)NCC(=O)N[C@@H](CO)C(=O)N[C@@H](CO)C(N)=O [GnRH2/GnRHL4] ([pGlu]LTQSLGWGSAGSS-NH2) the “activation of GnRH-superfamily receptors in vitro” value [1] was “activate GnRH-superfamily receptors in vitro”, the EC50 (GnRHR1/AKHR1; [2]) was 11.5 nM and the “activation of GnRHR1/AKHR1” value (GnRHR1/AKHR1; [3]) was “specifically activated; also recorded: respond only to a single ligand”. The EC50 (GnRHR2/AKHR2; [2]) was 200 nM and the “activation of GnRHR2/AKHR2” value (GnRHR2/AKHR2; [3]) was “specifically activated; also recorded: respond only to a single ligand”.

With CC(C)C[C@H](NC(=O)[C@H](CO)NC(=O)[C@H](Cc1ccccc1)NC(=O)[C@H](CO)NC(=O)[C@H](Cc1ccccc1)NC(=O)[C@@H]1CCC(=O)N1)C(=O)N1CCC[C@H]1C(=O)NCC(=O)N[C@@H](CCCCN)C(=O)N[C@@H](Cc1c[nH]c2ccccc12)C(=O)NCC(=O)N[C@@H](CC(N)=O)C(N)=O [GnRHL3] ([pGlu]FSFSLPGKWGN-NH2) the “activation of GnRH-superfamily receptors in vitro” value [1] was “activate GnRH-superfamily receptors in vitro”, the EC50 (CrzRb; [2]) was 5800 nM and the “activation of CrzRb” value (CrzRb; [4]) was “also respond; also recorded: at higher concentration”. The “EC50 levels for CrzR activation compared with the other CRZ ligands” value (CrzR; GnRHL3-CrzR activation assay versus other CRZ ligands) was “significantly higher”, the “activation of CrzR” value (CrzR; ligand-receptor interaction analyses, isoform not stated) was “activated” and the EC50 (CrzRa; [2]) was 500 nM. For the same molecule, the “activation of CrzRa” value (CrzRa; [4]) was “also respond; also recorded: at higher concentration”.

For O[C@H]1[C@H]2[C@H](O)CCCN2C[C@H]1O [swainsonine], the “development of honeybee larvae” value (honeybee larvae) is listed as “developmental delay in pupal metamorphosis”.

For glucagon, the “glucose production” value (glucose production) is given as “increased glucose production”.

B1: leptin: leptin, injected in female mice (protein, UniProt P41160 22-167, looked up)
Leptin: VPIQKVQDDTKTLIKTIVTRINDISHTQSVSAKQRVTGLDFIPGLHPILSLSKMDQTLAVYQQVLTSLPSQNVLQIANDLENLRDLLHLLAFSKSCSLPQTSGLQKPESLDGVLEASLYSTEVVALSRLQGSLQDILQQLDVSPEC
For B1, the “puberty onset” value (female mice) is given as “advances puberty onset”.

— PMC6969523, “Corazonin signaling integrates energy homeostasis and lunar phase to regulate aspects of growth and sexual maturation in Platynereis” (Proceedings of the National Academy of Sciences of the …, 2019)
